Measurements: patent publication US10150760B2, “Compounds for use in preparing heterocyclic triazole agonists of the APJ receptor” (AMGEN INC., priority 2016, dated 2018)

Assays:
human APJ receptor = human APJ receptor (Homo sapiens (Human), UniProt P35414); test: [35S]GTPγS binding assay on membranes from CHO cells stably expressing human APJ receptor; type: biochemical; settings: read-out: Activity hAPJ SPA EC50 IP
Outline: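 Membranes from CHO cells stably expressing human APJ incubated with ligand, 0.2 nM [35S]GTPγS and WGA SPA beads in HEPES pH 7.5 with 5 mM MgCl2, 200 mM NaCl, 3 μM GDP, 90 min at RT. Nonspecific binding defined with 100 μM GTPγS; EC50 by non-linear regression.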

[1] = test system: isolated perfused rat hearts; test: Ex vivo isolated perfused rat heart assay (Langendorff apparatus), load independent inotropic and lusitropic effects; parameters: species or system Sprague Dawley rat; settings: ex vivo isolated perfused rat heart, percent change over vehicle; for Isolated Heart Assay dP/dtmax (%): contractility; for Isolated Heart Assay dP/dtmin (%): relaxation
Excerpt: Evidence for Load Independent Inotropic Effects with APJ Agonists Using Ex Vivo Assay (Isolated Perfused Rat Hearts)
Naive Sprague Dawley® SD rats (Harlan laboratories (Livermore, Calif. USA)) were anaesthetized and hearts were excised followed by cannulation in the Langendorff apparatus (Harvard apparatus, Holliston, Mass. USA) via aorta. The heart was perfused retrograde with modified oxygenated Krebs-Henseleit buffer (Skrzypiec-Spring M et al., (2007) J. Pharmacol Toxicol Methods 55: 113-126). The pressure of the solution causes the aortic valve to shut and the perfusate is then forced into the ostium and the coronary vessels. This allows the heart to beat for several h. A balloon was inserted into the left ventricle (LV) to measure dP/dtmax (derivative of left ventricular pressure) as an index of cardiac contractility. The APJ agonist was perfused constantly in a dose dependent manner into the heart to examine cardiac contractility.
Example 49.0 was infused at different concentrations and load independent contractility was measured by index of LV dP/dtmax and the results are expressed as a percent change over vehicle. […] Example 49.0 was infused at different concentrations and load independent lusitropic effect (relaxation) was measured by index of LV dP/dtmin where results are expressed as percent change over vehicle. […] Example 60.0 was infused at different concentrations and load independent contractility was measured by index of LV dP/dtmax and the results are expressed as a percent change over vehicle. […] Example 60.0 was infused at different concentrations and load independent lusitropic effect (relaxation) was measured by index of LV dP/dtmin where results are expressed as percent change over vehicle.

human APJ receptor, sequence (P35414 whole entry): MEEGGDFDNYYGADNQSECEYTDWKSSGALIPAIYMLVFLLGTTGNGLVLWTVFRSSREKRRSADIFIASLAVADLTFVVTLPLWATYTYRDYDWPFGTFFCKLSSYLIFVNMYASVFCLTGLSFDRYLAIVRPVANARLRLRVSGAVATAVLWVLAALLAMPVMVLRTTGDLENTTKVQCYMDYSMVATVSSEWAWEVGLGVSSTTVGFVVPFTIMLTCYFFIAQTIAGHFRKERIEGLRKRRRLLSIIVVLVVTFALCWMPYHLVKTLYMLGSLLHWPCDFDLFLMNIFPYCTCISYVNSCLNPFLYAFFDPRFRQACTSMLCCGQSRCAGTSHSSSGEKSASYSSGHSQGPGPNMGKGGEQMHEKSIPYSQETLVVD

Molecule	EC50 (human APJ receptor)	Isolated Heart Assay dP/dtmax (%) [1]	Isolated Heart Assay dP/dtmin (%) [1]
COc1cccc(OC)c1-n1c(NS(=O)(=O)[C@@H](C)[C@H](C)c2ncc(Cl)cn2)nnc1[C@@H]1COCCO1 (single isomer, unassigned) [Example 40.0, (2S,3R)-3-(5-chloro-2-pyrimidinyl)-N-(4-(2,6-dimethoxyphenyl)-5-((2R)-1,4-dioxan-2-yl)-4H-1,2,4-triazol-3-yl)-2-butanesulfonamide or (2S,3R)-3-(5-chloro-2-pyrimidinyl)-N-(4-(2,6-dimethoxyphenyl)-5-((2S)-1,4-dioxan-2-yl)-4H-1,2,4-triazol-3-yl)-2-butanesulfonamide]	14 nM	No effect	No effect
COc1cccc(OC)c1-n1c(NS(=O)(=O)[C@@H](C)[C@H](C)c2ncc(Cl)cn2)nnc1[C@H]1CCCO1 (single isomer, unassigned) [Example 47.0, (2S,3R)-3-(5-chloro-2-pyrimidinyl)-N-(4-(2,6-dimethoxyphenyl)-5-((2S)-tetrahydro-2-furanyl)-4H-1,2,4-triazol-3-yl)-2-butanesulfonamide or (2S,3R)-3-(5-chloro-2-pyrimidinyl)-N-(4-(2,6-dimethoxyphenyl)-5-((2R)-tetrahydro-2-furanyl)-4H-1,2,4-triazol-3-yl)-2-butanesulfonamide]	0.72 nM	6.5%	1.0%
COc1cccc(OC)c1-n1c(NS(=O)(=O)[C@@H](C)[C@H](C)c2ncc(C)cn2)nnc1[C@H]1CCCO1 (single isomer, unassigned) [Example 50.0, (2S,3R)-N-(4-(2,6-dimethoxyphenyl)-5-((S)-tetrahydrofuran-2-yl)-4H-1,2,4-triazol-3-yl)-3-(5-methylpyrimidin-2-yl)butane-2-sulfonamide or (2S,3R)-N-(4-(2,6-dimethoxyphenyl)-5-((R)-tetrahydrofuran-2-yl)-4H-1,2,4-triazol-3-yl)-3-(5-methylpyrimidin-2-yl)butane-2-sulfonamide]	28 nM	2.0%	No effect
COc1cccc(OC)c1-n1c(NS(=O)(=O)[C@@H](C)[C@H](OC)c2ncc(Cl)cn2)nnc1[C@H]1CCCO1 (single isomer, unassigned) [Example 51.0, (1R,2S)-1-(5-chloropyrimidin-2-yl)-N-(4-(2,6-dimethoxyphenyl)-5-((R)-tetrahydrofuran-2-yl)-4H-1,2,4-triazol-3-yl)-1-methoxypropane-2-sulfonamide or (1R,2S)-1-(5-chloropyrimidin-2-yl)-N-(4-(2,6-dimethoxyphenyl)-5-((S)-tetrahydrofuran-2-yl)-4H-1,2,4-triazol-3-yl)-1-methoxypropane-2-sulfonamide]	0.59 nM	No effect	No effect
COc1cccc(OC)c1-n1c(NS(=O)(=O)[C@@H](C)[C@H](C)c2ncc(Cl)cn2)nnc1[C@H]1CCCO1 (single isomer, unassigned) [Example 53.0, (2S,3R)-3-(5-chloro-2-pyrimidinyl)-N-(4-(2,6-dimethoxyphenyl)-5-((2S)-tetrahydro-2-furanyl)-4H-1,2,4-triazol-3-yl)-2-butanesulfonamide or (2S,3R)-3-(5-chloro-2-pyrimidinyl)-N-(4-(2,6-dimethoxyphenyl)-5-((2R)-tetrahydro-2-furanyl)-4H-1,2,4-triazol-3-yl)-2-butanesulfonamide]	13 nM	14.0%	12.4%
COc1cccc(OC)c1-n1c(NS(=O)(=O)[C@@H](C)[C@H](OC)c2ncc(Cl)cn2)nnc1[C@H]1CCOC1 (single isomer, unassigned) [Example 56.0, (1R,2S)-1-(5-chloropyrimidin-2-yl)-N-(4-(2,6-dimethoxyphenyl)-5-((R)-tetrahydrofuran-3-yl)-4H-1,2,4-triazol-3-yl)-1-methoxypropane-2-sulfonamide or (1R,2S)-1-(5-chloropyrimidin-2-yl)-N-(4-(2,6-dimethoxyphenyl)-5-((S)-tetrahydrofuran-3-yl)-4H-1,2,4-triazol-3-yl)-1-methoxypropane-2-sulfonamide]	19 nM	6.8%	7.1%
COc1cccc(OC)c1-n1c(NS(=O)(=O)[C@@H](C)[C@H](OC)c2ncc(Cl)cn2)nnc1[C@H]1CCOC1 (single isomer, unassigned) [Example 57.0, (1R,2S)-1-(5-chloropyrimidin-2-yl)-N-(4-(2,6-dimethoxyphenyl)-5-((R)-tetrahydrofuran-3-yl)-4H-1,2,4-triazol-3-yl)-1-methoxypropane-2-sulfonamide or (1R,2S)-1-(5-chloropyrimidin-2-yl)-N-(4-(2,6-dimethoxyphenyl)-5-((S)-tetrahydrofuran-3-yl)-4H-1,2,4-triazol-3-yl)-1-methoxypropane-2-sulfonamide]	21 nM	No effect	No effect
COc1cccc(OC)c1-n1c(NS(=O)(=O)[C@@H](C)[C@H](C)c2ncc(Cl)cn2)nnc1[C@H]1CCOC1 (single isomer, unassigned) [Example 61.0, (2S,3R)-3-(5-chloropyrimidin-2-yl)-N-(4-(2,6-dimethoxyphenyl)-5-((R)-tetrahydrofuran-3-yl)-4H-1,2,4-triazol-3-yl)butane-2-sulfonamide or (2S,3R)-3-(5-chloropyrimidin-2-yl)-N-(4-(2,6-dimethoxyphenyl)-5-((S)-tetrahydrofuran-3-yl)-4H-1,2,4-triazol-3-yl)butane-2-sulfonamide]	29 nM	3.0%	No effect
COc1cccc(OC)c1-n1c(NS(=O)(=O)[C@@H](C)[C@H](C)c2ncc(Cl)cn2)nnc1[C@H]1CCCOC1 (single isomer, unassigned) [Example 63.0, (2S,3R)-3-(5-chloropyrimidin-2-yl)-N-(4-(2,6-dimethoxyphenyl)-5-((R)-tetrahydro-2H-pyran-3-yl)-4H-1,2,4-triazol-3-yl)butane-2-sulfonamide or (2S,3R)-3-(5-chloropyrimidin-2-yl)-N-(4-(2,6-dimethoxyphenyl)-5-((S)-tetrahydro-2H-pyran-3-yl)-4H-1,2,4-triazol-3-yl)butane-2-sulfonamide]	1.5 nM	14.0%	11.0%
(2S,3R)-N-(4-(2,6-dimethoxyphenyl)-5-((S)-tetrahydrothiophen-2-yl)-4H-1,2,4-triazol-3-yl)-3-(5-methylpyrimidin-2-yl)butane-2-sulfonamide or (2S,3R)-N-(4-(2,6-dimethoxyphenyl)-5-((R)-tetrahydrothiophen-2-yl)-4H-1,2,4-triazol-3-yl)-3-(5-methylpyrimidin-2-yl)butane-2-sulfonamide [Example 224.0]	1.5 nM		
(2S,3R)-N-(4-((1r,2R,6S)-2,6-dimethoxycyclohexyl)-5-((3S)-tetrahydro-3-furanyl)-4H-1,2,4-triazol-3-yl)-3-(5-methyl-2-pyrimidinyl)-2-butanesulfonamide or (2S,3R)-N-(4-((1r,2R,6S)-2,6-dimethoxycyclohexyl)-5-((3R)-tetrahydro-3-furanyl)-4H-1,2,4-triazol-3-yl)-3-(5-methyl-2-pyrimidinyl)-2-butanesulfonamide [Example 4.0]	890 nM		
(2S,3R)-N-(4-((1r,2R,6S)-2,6-dimethoxycyclohexyl)-5-((3S)-tetrahydro-3-furanyl)-4H-1,2,4-triazol-3-yl)-3-(5-methyl-2-pyrimidinyl)-2-butanesulfonamide or (2S,3R)-N-(4-((1r,2R,6S)-2,6-dimethoxycyclohexyl)-5-((3R)-tetrahydro-3-furanyl)-4H-1,2,4-triazol-3-yl)-3-(5-methyl-2-pyrimidinyl)-2-butanesulfonamide [Example 5.0]	> 4200 nM		
((2S,3R)-N-(4-(2,6-dimethoxyphenyl)-5-((R)-1,4-dioxan-2-yl)-4H-1,2,4-triazol-3-yl)-3-(5-methylpyrimidin-2-yl)butane-2-sulfonamide or (2S,3R)-N-(4-(2,6-dimethoxyphenyl)-5-((S)-1,4-dioxan-2-yl)-4H-1,2,4-triazol-3-yl)-3-(5-methylpyrimidin-2-yl)butane-2-sulfonamide [Example 206.0]	35 nM		
